Source: ChEMBL document CHEMBL2074410, “Chelerythrine stimulates GSH transport by rat Mrp2 (Abcc2) expressed in canine kidney cells” (Am J Physiol Gastrointest Liver Physiol, 2003)

Target: ATP-binding cassette sub-family C member 2 (Rattus norvegicus, UniProt Q63120)
Test: TP_TRANSPORTER: transcellular transport in MDCKII(+GSH)
Type: functional, cell-based
Conditions: dog, mdck-ii

ATP-binding cassette sub-family C member 2, sequence (Q63120 whole entry): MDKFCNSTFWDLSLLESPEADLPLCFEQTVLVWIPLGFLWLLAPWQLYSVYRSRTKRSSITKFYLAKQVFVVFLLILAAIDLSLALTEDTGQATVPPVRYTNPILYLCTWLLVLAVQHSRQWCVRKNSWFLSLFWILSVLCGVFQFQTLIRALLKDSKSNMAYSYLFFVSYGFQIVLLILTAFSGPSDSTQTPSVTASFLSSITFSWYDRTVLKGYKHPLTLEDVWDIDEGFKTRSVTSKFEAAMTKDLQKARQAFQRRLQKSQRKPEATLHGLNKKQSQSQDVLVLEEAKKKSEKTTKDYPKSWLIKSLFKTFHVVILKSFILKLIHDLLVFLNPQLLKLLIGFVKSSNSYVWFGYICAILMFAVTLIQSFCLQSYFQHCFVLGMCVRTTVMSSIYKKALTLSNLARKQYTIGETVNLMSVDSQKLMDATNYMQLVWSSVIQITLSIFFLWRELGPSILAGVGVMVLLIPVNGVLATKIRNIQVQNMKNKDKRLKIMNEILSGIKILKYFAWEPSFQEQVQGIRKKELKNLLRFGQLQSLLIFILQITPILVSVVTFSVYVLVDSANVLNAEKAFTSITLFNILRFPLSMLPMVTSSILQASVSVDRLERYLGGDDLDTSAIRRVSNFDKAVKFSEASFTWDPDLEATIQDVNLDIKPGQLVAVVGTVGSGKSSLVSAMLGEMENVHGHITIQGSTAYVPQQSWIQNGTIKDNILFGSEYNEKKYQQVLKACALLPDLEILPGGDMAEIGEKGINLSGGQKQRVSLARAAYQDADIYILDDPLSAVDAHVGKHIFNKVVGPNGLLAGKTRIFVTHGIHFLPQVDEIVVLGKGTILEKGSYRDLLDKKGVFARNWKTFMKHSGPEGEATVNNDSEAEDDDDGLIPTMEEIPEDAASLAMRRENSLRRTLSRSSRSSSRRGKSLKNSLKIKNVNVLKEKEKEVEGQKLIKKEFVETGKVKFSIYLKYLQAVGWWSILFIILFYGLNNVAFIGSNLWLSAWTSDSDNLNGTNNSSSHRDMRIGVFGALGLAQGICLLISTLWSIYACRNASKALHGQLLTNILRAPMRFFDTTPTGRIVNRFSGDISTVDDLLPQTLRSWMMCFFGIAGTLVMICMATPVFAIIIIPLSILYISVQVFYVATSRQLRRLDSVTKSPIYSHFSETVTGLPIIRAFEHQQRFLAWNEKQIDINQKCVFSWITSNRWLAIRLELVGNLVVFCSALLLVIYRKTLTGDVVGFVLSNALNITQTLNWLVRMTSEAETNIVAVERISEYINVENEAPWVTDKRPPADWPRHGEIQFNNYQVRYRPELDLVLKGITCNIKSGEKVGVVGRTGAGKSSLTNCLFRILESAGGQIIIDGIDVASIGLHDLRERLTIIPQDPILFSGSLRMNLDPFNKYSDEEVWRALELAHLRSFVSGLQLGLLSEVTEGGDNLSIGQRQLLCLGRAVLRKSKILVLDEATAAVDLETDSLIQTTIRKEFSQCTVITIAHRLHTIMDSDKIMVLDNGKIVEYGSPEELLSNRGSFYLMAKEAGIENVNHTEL

SMILES: COc1ccc2c(c[n+](C)c3c4cc5c(cc4ccc23)OCO5)c1OC [CHELERYTHRINE]
- Activity: substrate []
